Results from US20160083380A1, “OXIMINO DERIVATIVES FOR THE TREATMENT OF DYSLIPIDEMIA” (CADILA HEALTHCARE LIMITED, priority 2013, published 2016).
Where two headings read alike, the source gives them in different places.

Tested on: high fat diet C57 mice
Test: LDL-C lowering activity in high fat diet C57 mice
Assay type: in vivo
Details: Mus musculus, po, 672 h, C57 mice on high fat diet, orally once a day, dose 30 mg (30 mpk), blood collected on day 28 of treatment
Protocol: LDL-C Lowering Activity—in High Fat Diet C57 Mice
The in-vivo LDL-c lowering for test compound was tested in C57 mice which were kept on high fat diet for 4 weeks and the blood was collected by retro-orbital sinus puncture method under light ether anesthesia on day 0 (pretreatment). Animal are grouped based on LDL-c levels, after that 4-6 week treatment with vehicle or test compound orally at a dose of 30 mpk dose once a day was given. On completion of treatment on day 28 of the treatment the blood was collected for LDL-c and TC levels measurement. The percent change in LDL-c and TC in test compound group Vs Vehicle group was calculated.

[1] = read-out: % Change Vs Vehicle Control LDL-c
[2] = read-out: % Change Vs Vehicle Control TC

SMILES	change in vivo at 30 mg/kg [1]	change in vivo at 30 mg/kg [2]
C/C(=N\OCc1ccc(C(F)(F)F)cc1)c1ccc(OCc2nnn[nH]2)cc1 [Example 1, 1-(4-((1H-tetrazol-5-yl)methoxy)phenyl)ethanone O-(4-(trifluoromethyl)benzyl)oxime]	-50 ± 4%	-24 ± 4%
C/C(=N\OCc1ccc(C(F)(F)F)cc1)c1ccc(OCc2nnn(C)n2)cc1 [Example 2, 1-(4-((2-Methyl-2H-tetrazol-5-yl)methoxy)phenyl)ethanone O-(4-(trifluoromethyl)benzyl)oxime]	-29 ± 6%	-14 ± 3%
C/C(=N\OCc1ccc(C(F)(F)F)cc1)c1ccc(OCc2nnnn2C)cc1 [Example 3, 1-(4-((1-Methyl-H-tetrazol-5-yl)methoxy)phenyl)ethanone O-(4-(trifluoromethyl)benzyl)oxime]	-5 ± 8%	-1 ± 3%
CC(=NOCc1ccc(C(F)(F)F)cc1)c1ccc(OCc2nnn[nH]2)nc1 [Example 4, 1-(6-((1H-tetrazol-5-yl)methoxy)pyridin-3-yl)ethanone O-(4-(trifluoromethyl)benzyl)oxime]	-66 ± 2%	-41 ± 4%
C/C(=N\OCc1ccc(C(F)(F)F)cc1)c1ccc(OCc2cnn[nH]2)cc1 [Example 6, 1-(4-((1H-1,2,3-triazol-5-yl)methoxy)phenyl)ethanone O-(4-(trifluoromethyl)benzyl)oxime]	-30 ± 5%	-11 ± 2%
C/C(=N\OCc1ccc(C(F)(F)F)cc1)c1ccc(OCc2nnc(C)o2)cc1 [Example 7, 1-(4-((5-Methyl-1,3,4-oxadiazol-2-yl)methoxy)phenyl)ethanone O-(4-(trifluoromethyl)benzyl)oxime]	-34 ± 7%	-10 ± 7%
C/C(=N\OCc1ccc(C(F)(F)F)cc1)c1ccc(OCc2nnc(C)[nH]2)nc1 [Example 18, 1-(6-((5-Methyl-4H-1,2,4-triazol-3-yl)methoxy)pyridin-3-yl)ethanone O-(4-(trifluoromethyl)benzyl)oxime]	-23 ± 6%	-11 ± 3%
C/C(=N\OCc1ccc(C(F)(F)F)cc1)c1ccc(OCc2nnc(N)o2)cc1 [Example 20, 1-(4-((5-Amino-1,3,4-oxadiazol-2-yl)methoxy)phenyl)ethanone O-(4-(trifluoromethyl)benzyl)oxime]	-29 ± 5%	-13 ± 2%
C/C(=N\OCc1ccc(C(C)(F)F)cc1)c1ccc(OCc2nnn[nH]2)cc1 [Example 22, 1-(4-((1H-tetrazol-5-yl)methoxy)phenyl)ethanone O-(4-(1,1-difluoroethyl)benzyl)oxime]	-61 ± 3%	-30 ± 3%
COc1cc(CO/N=C(\C)c2ccc(OCc3nnn[nH]3)cc2)ccc1C(F)(F)F [Example 25, 1-(4-((1H-tetrazol-5-yl)methoxy)phenyl)ethanone O-(3-methoxy-4-(trifluoromethyl)benzyl)oxime]	-54 ± 3%	-21 ± 2%
C/C(=N\OCc1ccc(C(F)(F)F)cc1)c1ccc(OCc2nnn[nH]2)cc1O [Example 27, 1-(4-((1H-tetrazol-5-yl)methoxy)-2-hydroxyphenyl) ethanone O-(4-(trifluoromethyl)benzyl)oxime]	-50 ± 5%	-25 ± 3%
C/C(=N\OCc1ccc(C(F)(F)F)cc1)c1ccc(OCc2nnnn2C)cc1O [Example 29, 1-(2-Hydroxy-4-((1-methyl-1H-tetrazol-5-yl)methoxy)phenyl)ethanone O-(4-(trifluoromethyl)benzyl)oxime]	-14 ± 6%	-5 ± 3%
C/C(=N\OCc1ccc(F)cc1)c1ccc(OCc2nnn[nH]2)cc1 [Example 31, 1-(4-((1H-tetrazol-5-yl)methoxy)phenyl)ethanone O-(4-fluorobenzyl)oxime]	-26 ± 10%	-7 ± 4%
C/C(=N\OCc1ccc(C(F)(F)F)cc1)c1ccc(OCc2nnn[nH]2)nc1Cl [Example 36, 1-(6-((1H-tetrazol-5-yl)methoxy)-2-chloropyridin-3-yl)ethanone O-(4-(trifluoromethyl)benzyl)oxime]	-39 ± 5%	-12 ± 3%
CCn1nnc(COc2ccc(/C(C)=N/OCc3ccc(C(F)(F)F)cc3)cc2)n1 [Example 41, 1-(4-((2-Ethyl-2H-tetrazol-5-yl)methoxy)phenyl)ethanone O-(4-(trifluoromethyl)benzyl)oxime]	-36 ± 6%	-11 ± 5%
CCn1nnnc1COc1ccc(/C(C)=N/OCc2ccc(C(F)(F)F)cc2)cc1 [Example 42, 1-(4-((1-Ethyl-2H-tetrazol-5-yl)methoxy)phenyl)ethanone O-(4-(trifluoromethyl)benzyl)oxime]	-22 ± 9%	1 ± 6%
C/C(=N\OCc1ccc(C(C)(F)F)cc1)c1ccc(OCc2nnn[nH]2)nc1 [Example 43, 1-(6-((1H-tetrazol-5-yl)methoxy)pyridin-3-yl) ethanone O-(4-(1,1-difluoroethyl)benzyl)oxime]	-67 ± 1%	-38 ± 2%
CCn1nnc(COc2ccc(/C(C)=N/OCc3ccc(C(C)(F)F)cc3)cn2)n1 [Example 44, 1-(6-((2-Ethyl-2H-tetrazol-5-yl)methoxy)pyridin-3-yl)ethanone O-(4-(1,1-difluoroethyl)benzyl)oxime]	-50 ± 5%	-17 ± 3%
CCn1nnc(COc2ccc(/C(C)=N/OCc3ccc(C(F)(F)F)cc3)cn2)n1 [Example 46, 1-(6-((2-Ethyl-2H-tetrazol-5-yl)methoxy)pyridin-3-yl)ethanone O-(4-(trifluoromethyl)benzyl)oxime]	-41 ± 4%	-20 ± 2%
C/C(=N\OCc1ccc(C(F)(F)F)cc1)c1ccc(OCc2nnn(C(C)C)n2)nc1 [Example 48, 1-(6-((2-isoPropyl-2H-tetrazol-5-yl)methoxy)pyridin-3-yl)ethanone O-(4-(trifluoromethyl)benzyl)oxime]	-47 ± 7%	-17 ± 3%
C/C(=N\OCc1ccc(C(F)(F)F)cc1)c1ccc(OCc2nnn(CC3CC3)n2)nc1 [Example 50, 1-(6-((2-(Cyclopropylmethyl)-2H-tetrazol-5-yl)methoxy)pyridin-3-yl)ethanone O-(4-(trifluoromethyl)benzyl)oxime]	-47 ± 4%	-18 ± 3%
C/C(=N\OCc1ccc(C(F)(F)F)cc1)c1ccc(OCc2nnn(CC3CCCCC3)n2)nc1 [Example 52, 1-(6-((2-(Cyclohexylmethyl)-2H-tetrazol-5-yl)methoxy)pyridin-3-yl)ethanone O-(4-(trifluoromethyl)benzyl)oxime]	-18 ± 11%	-2 ± 5%
C/C(=N\OCc1ccc(C(F)(F)F)cc1)c1ccc(OCc2nnnn2CC(=O)O)nc1 [Example 56, 2-(5-(((5-(1-(((4-(Trifluoromethyl)benzyl)oxy)imino)ethyl)pyridin-2-yl)oxy)methyl)-1H-tetrazol-1-yl)acetic acid]	-22 ± 5%	-16 ± 4%
C/C(=N\OCc1ccc(C(C)(F)F)cc1)c1ccc(OCc2nnn(C(C)C)n2)nc1 [Example 58, 1-(6-((2-isoPropyl-2H-tetrazol-5-yl)methoxy)pyridin-3-yl)ethanone O-(4-(1,1-difluoroethyl)benzyl)oxime]	-36 ± 6%	-7 ± 2%
C/C(=N\OCc1ccc(C(C)(F)F)cc1)c1ccc(OCc2nnn(CC3CC3)n2)nc1 [Example 60, 1-(6-((2-(Cyclopropylmethyl)-2H-tetrazol-5-yl)methoxy)pyridin-3-yl)ethanone O-(4-(1,1-difluoroethyl)benzyl)oxime]	-49 ± 3%	-17 ± 3%
